In patent US20120122840A1, “COMPOUNDS AND THERAPEUTIC USES THEREOF” (Myrexis, Inc., priority 2009, published 2012):

Key:
FER [1] = molecular target: T1, FER (Homo sapiens, UniProt P16591); assay: In vitro binding assays
Aurora A = molecular target: T2, Aurora A (Homo sapiens, UniProt O14965); assay: Direct target affinity purification (DTAP) from cell lysates; type: binding; details: compound coupled to Sepharose beads
T2 sequence (O14965 1-403): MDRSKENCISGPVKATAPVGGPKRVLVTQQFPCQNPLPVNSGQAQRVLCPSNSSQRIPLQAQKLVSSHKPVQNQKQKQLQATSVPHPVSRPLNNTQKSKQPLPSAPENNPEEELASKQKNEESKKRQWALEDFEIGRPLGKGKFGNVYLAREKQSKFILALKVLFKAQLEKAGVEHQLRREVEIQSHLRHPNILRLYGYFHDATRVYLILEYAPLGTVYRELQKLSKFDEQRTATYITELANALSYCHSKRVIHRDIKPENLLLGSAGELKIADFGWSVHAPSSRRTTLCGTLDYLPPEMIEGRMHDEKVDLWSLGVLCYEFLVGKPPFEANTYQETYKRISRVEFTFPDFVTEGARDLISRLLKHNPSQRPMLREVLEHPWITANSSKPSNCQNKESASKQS
Description: (§1) Direct target affinity purification (DTAP) was used to investigate (1) the selectivity of compounds of the invention for TTK, relative to other kinases, and (2) the importance of a specific methyl substituent in providing that selectivity.
(§2) In preparation for DTAP studies, the two compounds depicted above were synthesized with an alkyl-amine linker to allow covalent coupling to epoxy-activated Sepharose 6B beads (GE Healthcare, Piscataway, N.J.). Sepharose beads were swollen and washed with water for 30 min followed by equilibration in coupling buffer (50% dimethylformamide, 50 mM Na2CO3). Beads were pelleted by centrifugation (15 sec at 2000×g) and the supernatant removed by aspiration. An equal volume of coupling buffer containing the linkered test compound was used to resuspend the beads. Compound concentrations in the coupling reaction ranged from 0.1 mM to 12.5 mM. The coupling reactions were incubated at 34° C. for 18 hrs on a rotator mixer. Ethanolamine was added to 1 M for the final 1 hr to quench the coupling reaction. Beads were washed extensively with binding buffer (1 M NaCl, 50 mM Hepes [pH 7.4], 1% Triton X-100, 1 mM EDTA and 1 mM dithiothreitol) to remove residual coupling reagents, and were then stored at 4° C.
(§3) Cellular proteins were prepared by mild sonication in lysis buffer (150 mM NaCl, 50 mM Hepes [pH 7.4], 1% Triton X-100, 1 mM EDTA and 2 mM dithiothrietol containing 1× Halt™ protease and phosphatase inhibitor cocktail [Thermo Fisher Scientific, Rockford, Ill.]). Lysates were centrifuged (20,000×g for 20 min) to remove debris, diluted to a protein concentration of ˜5 mg/ml, divided into aliquots, and stored at −80° C.
(§4) For DTAP reactions, cell lysates (˜0.5 ml per binding reaction) were thawed and the NaCl concentration adjusted to 1 M. Competitor compounds dissolved in DMSO (or a DMSO control) were then added to the lysate and incubated on ice for 5 min. The lysates were centrifuged at 20,000×g for 10 min and the cleared supernatant was transferred to a tube containing 50 μl of coupled beads. The binding reactions were incubated on a rotator mixer at 4° C. for 2 hrs, after which the beads were pelleted by centrifugation and the supernatant removed by aspiration. The beads were washed three times with 20 volumes of binding buffer, 2× with 20 volumes wash buffer (150 mM NaCl, 50 mM Hepes [pH 7.4], 1% Tween 20, 1 mM EDTA, 2 mM dithiothrietol) and finally twice with 10 volumes of 150 mM NaCl, 50 mM Hepes [pH 7.4].
(§5) During the final wash, an aliquot containing 10 μl of beads was transferred to a separate tube and resuspended with 15 μl of 2× SDS/PAGE loading buffer (Invitrogen Corporation, Carlsbad, Calif.) for 5 min at 90° C. The eluted proteins were resolved by electrophoresis on a NuPage 4-12% Bis-Tris Gel (Invitrogen Corporation, Carlsbad, Calif.) and visualized by staining with Ruby Red (Invitrogen Corporation, Carlsbad, Calif.). The remaining beads (40 μl) were processed for analysis by mass spectrometry.

JNK = JNK (Homo sapiens, UniProt P45983); assay: as above; type: binding; details: compound coupled to Sepharose beads
JNK, sequence (P45983 whole entry): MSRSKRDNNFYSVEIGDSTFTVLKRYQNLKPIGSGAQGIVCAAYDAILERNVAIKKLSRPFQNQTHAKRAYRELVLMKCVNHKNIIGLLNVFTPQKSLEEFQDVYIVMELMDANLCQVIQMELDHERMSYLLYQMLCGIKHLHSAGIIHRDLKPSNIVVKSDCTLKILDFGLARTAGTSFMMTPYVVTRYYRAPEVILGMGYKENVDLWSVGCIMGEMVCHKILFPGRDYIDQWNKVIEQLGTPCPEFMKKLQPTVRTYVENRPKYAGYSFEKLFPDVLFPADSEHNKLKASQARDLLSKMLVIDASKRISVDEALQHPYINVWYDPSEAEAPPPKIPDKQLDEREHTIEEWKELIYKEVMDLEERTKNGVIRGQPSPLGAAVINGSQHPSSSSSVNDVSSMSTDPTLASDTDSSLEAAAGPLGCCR
Description: as §1, §2, §3, §4, §5

TTK = molecular target: T3, TTK (Homo sapiens, UniProt P33981); assay: as above; type: binding; details: compound coupled to Sepharose beads
T3 sequence (P33981 1-857): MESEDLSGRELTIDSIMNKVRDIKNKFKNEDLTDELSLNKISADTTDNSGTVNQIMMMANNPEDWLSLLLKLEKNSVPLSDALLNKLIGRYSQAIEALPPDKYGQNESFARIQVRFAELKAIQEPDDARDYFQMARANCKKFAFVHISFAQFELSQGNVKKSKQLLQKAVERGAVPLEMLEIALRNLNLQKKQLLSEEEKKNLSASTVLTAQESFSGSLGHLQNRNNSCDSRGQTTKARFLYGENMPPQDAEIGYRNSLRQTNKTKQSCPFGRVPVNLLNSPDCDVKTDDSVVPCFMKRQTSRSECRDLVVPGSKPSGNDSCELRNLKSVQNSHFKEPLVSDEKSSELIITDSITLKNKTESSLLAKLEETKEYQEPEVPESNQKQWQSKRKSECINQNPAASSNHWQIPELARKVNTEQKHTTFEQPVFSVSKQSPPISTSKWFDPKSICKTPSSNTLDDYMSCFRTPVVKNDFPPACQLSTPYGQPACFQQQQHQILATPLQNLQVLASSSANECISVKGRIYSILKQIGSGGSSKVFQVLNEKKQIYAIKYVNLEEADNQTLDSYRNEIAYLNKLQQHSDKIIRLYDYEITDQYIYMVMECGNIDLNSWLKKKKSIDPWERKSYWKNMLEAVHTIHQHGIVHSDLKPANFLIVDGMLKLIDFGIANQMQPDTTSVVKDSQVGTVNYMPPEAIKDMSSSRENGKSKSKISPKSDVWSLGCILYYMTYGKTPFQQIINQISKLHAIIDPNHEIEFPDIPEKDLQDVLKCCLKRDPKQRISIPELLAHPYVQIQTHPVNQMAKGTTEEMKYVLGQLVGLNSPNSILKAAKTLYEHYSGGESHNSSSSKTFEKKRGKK
Description: as §1, §2, §3, §4, §5

JAK1 = molecular target: T4, JAK1 (Homo sapiens, UniProt P23458); assay: as above; type: binding; details: compound coupled to Sepharose beads
T4 construct: Cellular proteins were prepared by mild sonication in lysis buffer; endogenous in cells
T4 sequence (P23458 whole entry, species assumed): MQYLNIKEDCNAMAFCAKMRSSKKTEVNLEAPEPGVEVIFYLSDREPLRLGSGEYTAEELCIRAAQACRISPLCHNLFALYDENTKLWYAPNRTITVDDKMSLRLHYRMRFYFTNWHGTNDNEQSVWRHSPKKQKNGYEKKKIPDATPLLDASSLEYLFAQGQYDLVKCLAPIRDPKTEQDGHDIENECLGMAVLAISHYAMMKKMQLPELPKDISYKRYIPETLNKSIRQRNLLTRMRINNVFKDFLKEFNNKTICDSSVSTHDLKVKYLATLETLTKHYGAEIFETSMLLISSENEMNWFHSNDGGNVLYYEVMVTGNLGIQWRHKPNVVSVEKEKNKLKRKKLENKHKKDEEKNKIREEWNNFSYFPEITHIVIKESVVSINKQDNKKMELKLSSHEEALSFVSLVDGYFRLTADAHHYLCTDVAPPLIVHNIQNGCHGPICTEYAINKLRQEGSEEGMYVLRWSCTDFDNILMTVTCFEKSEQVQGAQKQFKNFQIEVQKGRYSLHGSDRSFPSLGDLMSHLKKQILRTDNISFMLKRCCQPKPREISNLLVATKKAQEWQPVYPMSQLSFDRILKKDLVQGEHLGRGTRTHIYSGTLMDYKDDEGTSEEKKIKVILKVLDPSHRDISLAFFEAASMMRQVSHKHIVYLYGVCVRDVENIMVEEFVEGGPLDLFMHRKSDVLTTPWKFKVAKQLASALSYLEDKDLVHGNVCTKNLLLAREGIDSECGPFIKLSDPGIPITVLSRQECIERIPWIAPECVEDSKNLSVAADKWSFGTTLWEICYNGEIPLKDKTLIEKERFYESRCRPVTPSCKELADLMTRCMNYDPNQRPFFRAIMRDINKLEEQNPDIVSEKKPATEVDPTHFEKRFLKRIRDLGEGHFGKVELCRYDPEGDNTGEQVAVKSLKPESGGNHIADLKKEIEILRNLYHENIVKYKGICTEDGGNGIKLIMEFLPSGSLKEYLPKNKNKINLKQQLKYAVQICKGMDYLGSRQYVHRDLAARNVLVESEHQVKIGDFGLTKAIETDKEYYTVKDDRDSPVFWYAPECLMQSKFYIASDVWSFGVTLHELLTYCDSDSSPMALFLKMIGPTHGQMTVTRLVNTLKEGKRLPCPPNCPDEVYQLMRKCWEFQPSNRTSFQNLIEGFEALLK
Description: as §1, §2, §3, §4, §5

FER [2] = molecular target: T1, FER; assay: as above; type: binding; details: compound coupled to Sepharose beads
Description: as §1, §2, §3, §4, §5

T1 sequence (P16591 whole entry, species assumed): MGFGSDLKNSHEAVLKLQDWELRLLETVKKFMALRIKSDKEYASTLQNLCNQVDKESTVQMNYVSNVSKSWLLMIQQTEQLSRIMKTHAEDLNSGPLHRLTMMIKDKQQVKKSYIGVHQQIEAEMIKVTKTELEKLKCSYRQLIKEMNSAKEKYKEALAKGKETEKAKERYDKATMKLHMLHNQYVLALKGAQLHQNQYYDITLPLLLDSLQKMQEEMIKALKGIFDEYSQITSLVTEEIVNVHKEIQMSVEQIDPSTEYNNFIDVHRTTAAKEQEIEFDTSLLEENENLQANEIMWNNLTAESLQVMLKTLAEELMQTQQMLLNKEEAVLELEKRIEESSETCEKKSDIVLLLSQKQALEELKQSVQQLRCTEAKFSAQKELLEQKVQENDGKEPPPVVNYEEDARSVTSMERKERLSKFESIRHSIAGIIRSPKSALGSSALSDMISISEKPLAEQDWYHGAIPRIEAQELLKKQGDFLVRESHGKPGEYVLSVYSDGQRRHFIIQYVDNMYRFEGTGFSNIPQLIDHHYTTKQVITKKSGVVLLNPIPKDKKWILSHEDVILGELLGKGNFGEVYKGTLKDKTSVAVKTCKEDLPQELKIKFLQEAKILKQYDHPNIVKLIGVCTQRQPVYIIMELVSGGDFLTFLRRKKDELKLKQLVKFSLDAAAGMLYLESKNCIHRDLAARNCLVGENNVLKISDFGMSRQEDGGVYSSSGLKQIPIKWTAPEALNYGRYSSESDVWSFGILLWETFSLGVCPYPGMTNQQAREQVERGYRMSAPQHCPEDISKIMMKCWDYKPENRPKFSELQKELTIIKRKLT

SMILES: NCCCOc1ccc(Nc2nc(NC3CCCCC3)c3nc[nH]c3n2)cc1 [N2-[4-(3-aminopropoxy)phenyl]-N-6-cyclohexyl-9H-purine-2,6-diamine]
- IC50 (FER [1]): 15 nM
- binding of Aurora A from cell lysates to bead-coupled compound (Aurora A): found to bind
- binding of JNK from cell lysates to bead-coupled compound (JNK): found to bind
- binding of TTK from cellular lysates to bead-coupled compound (TTK): high affinity
- binding of JAK1 from cell lysates to bead-coupled compound (JAK1): found to bind
- binding of FER from cell lysates to bead-coupled compound (FER [2]): found to bind
